The text below walks through data of US20090275633A1, “Novel Tumour Suppressor” (ONCOMETHYLOME SCIENCES SA, priority 2006, published 2009).

Each structure is given as a SMILES string. “Also recorded” adds a separate entry of the source.

Assay [1] relates to colon cancer cell lines (RKO, Co115, HCT-116, SW48, LoVo). The experiment in a line: Apoptosis by flow cytometry (YO-PRO-1/propidium iodide). The class given is cell-based, human. On the set-up: apoptosis (propidium iodide): dose or concentration left out as unconfirmed. The settings on record: for apoptosis (propidium iodide): HDAC2-deficient RKO cells, 24 h with SAHA. As to the method:
(§1) FIG. 5. […] Experiments were performed in triplicate.
(§2) Human colorectal and endometrial cancer cell lines were obtained from the American Type Culture Collection. HDAC inhibition treatment was developed adding 0.25 μM trichostatin A, 10 mM sodium valproate or 10 mM sodium butyrate to the culture medium for 24 hours. We obtained DNA samples from 228 human primary malignancies corresponding to colon tumors of HPNCC patients (n=47) and sporadic MSI+colon (n=127), MSI-colon (n=40), gastric (n=38) and endometrial carcinomas (n=16), as well as normal colon tissue (n=6), at the time of clinically indicated surgical procedures. Normal lymphocytes from healthy donors (n=50) was also used. DNA was extracted using standard protocols.
(§3) The percentage of apoptotic cells was determined by flow cytomery using Vybrant® Apoptosis Assay Kit #4-YO-PRO®-1/propidium iodide (Molecular Probes/Invitrogen). To analyze the cell cycle profiles, we stained with propidium iodide and the percentage of cells in G2/M was determined by flow cytometry.
In general terms: In flow cytometry, cells or beads pass a laser one at a time.

Assay [2] relates to HCT116, RKO and Co115 tumor xenografts. Nature of the assay: Mouse xenograft model with PBS, TSA and BUT treatments. The class given is in vivo, athymic nude mice. From the text: a, PBS, BUT and TSA treated female athymic nude mice 17 days after injection of RKO (left flank) and HCT116 (right flank) cells.
b, Tumors were excised and weighed. Tumor detail in cm and weight in mg for PBS-, BUT- and TSA-HCT116, RKO and C0115 cells.
c, Effect of the HDAC inhibitors TSA and sodium butyrate (But) on the in vivo growth of HCT116, RKO and C0115. Tumor size was monitored over time and size in mm3. Dark square: PBS treatment, Dark circle: TSA treatment, Dark triangle: BUT treatment.
Six-week-old female athymic nude mice nu/nu (Harlam Sprague-Dawley, Indianapolis, Ind.), housed under specific pathogen-free conditions (Institutional Animal Welfare Committee Agreement), were used for HCT116, RKO and Co115 tumor xenografts. For treatments, animals were randomly separated in three seven-specimens-groups, differentiated for PBS (Control), TSA (Trichostatin A) and BUT (Butyric acid) treatments. Both flanks of each animal were injected s.c. with 106 (HCT116) or 2×106 (RKO and CO115) cells in a total volume of 200 μL of PBS. For transfections assays both flanks of each animal were injected subcutaneously with 2×106 RKO (left) or RKO-HDAC2-transfected (right) cells in a total volume of 200 μL of PBS. Tumor development at the site of injection was evaluated daily. Animals were sacrificed at 21 days. The tumors were then excised and weighed.

Assay [3] relates to histones H3 and H4 in colorectal cancer cell lines RKO, Co115, HCT-116, SW48 and LoVo. The experiment in a line: Histone H3 and H4 acetylation levels (western blot, HPCE) after treatment with HDAC inhibitors. It counts as cell-based, human. To be noted: 24 hours.
Text: To address these issues we assessed the effects of three classical HDACis, the hydroxamic acid trichostatin A and the carboxylic acids butyrate and valproate, on five colorectal cancer cell lines: the HDAC2-mutant cell lines RKO and Co115, and the HDAC2-wild type cell lines HCT-116, SW48 and LoVo. We analyzed the acetylation levels at histones H3 and H4 using western blotting with antibodies raised against tetraacetylated peptides of histones H3 and […], and high-performance capillary electrophoresis (HPCE)^3. […] The HDAC2-deficient cells were resistant to trichostatin A action from a biochemical and also a cellular point of view.
as §2
We prepared histones in accordance with established protocols1. We obtained histones from cell lines and tumor samples in parallel with their matching controls under identical conditions. For cell lines, we isolated nuclei with RSB buffer (10 mM Tris 10 (pH 7.5), 10 mM NaCl and 3 mM MgCl2) containing I—Nonidet-P40 and protease inhibitors. We extracted nuclei with 0.25 M HCl and precipitated them with eight volumes of acetone. For tumors and their normal tissue counterparts, we homogenized samples with a Polytron homogenizer (Brinkman Instruments) in 0.25 M HCl and incubated them with gentle agitation for 4 h. We precipitated the resulting supernatant with eight volumes of acetone. We then fractionated individual histones by reverse-phase HPLC on a Jupiter C18 column. We made comparisons only between samples extracted with identical methodology.
For western blotting, we collected cells by centrifugation and washed cell pellets twice with phosphate-buffered saline buffer. For HDAC2 expression, nuclear extracts were fractionated on a 7.5% SDS-PAGE gel, transferred the fractions to a polyvinylidene difluoride membrane with […] (Immobilon PSQ, Millipore), blocked the membrane in 5% milk PBS-T (phosphate-buffered saline with 0.1% Tween-20) and immunoprobed it with antibodies to HDAC2 (1:1000) and HDAC1 (1:1000; both from Abcam). The acetylated forms of histones 3 and 4 were analyzed as previously described2. We extracted the histones directly from the cell pellets with 0.250 M HCl. We fractionated 10 μg of the acid-extracted proteins on a 10% SDS-PAGE gel. Transferred membranes were immunoprobed with antibodies to acetylated H4 (1:2,000, Upstate) and acetylated H3 (1:50,000, Upstate). We used horseradish peroxidase-conjugated antibody to rabbit IgG (Amersham) at 1:3,000 dilution in PBS-T as the secondary antibody and antibody to H4 (1:3,000; Upstate) as a loading control. For immunolocalization experiments, we grew cells on coverslips and stained them with antibodies against HDAC2 and HDAC1 (Abcam) as previously described. We obtained images with a Leica DMRD photomicroscope coupled to a Leica DC200 camera, processed them using Adobe Photoshop software and analyzed them using public National Institutes of Health Image software. Immunohistochemical staining of HDAC2 was performed using a polyclonal antibody (Abcam, Cambridge, UK) at a 1:1500 dilution. After antigen retrieval with citrate buffer, immunodetection was performed by the DAKO EnVision Visualization Method (DAKO, Glostrup, Denmark), with diaminobenzidine chromogen as the substrate
We quantified global histone H4 acetylation as previously described3. […]
On the technique in general: Immunoblotting shows a protein as a band on a membrane.

The test system of assay [4] is colon cancer cell lines (RKO, Co115, HCT-116, SW48, LoVo). The experiment in a line: Cell viability (MTT assay) of colon cancer cell lines. The class given is cell-based, human. To be noted: for inhibition of proliferation: all cancer cell lines independently of HDAC2 status. As to the method: Cells were treated for 48 h with different concentrations of TSA (0-1000 nM). Experiments were performed in triplicate.
as §1, §2
Cell viability was determined as previously described5. Aliquots of 1.5×10^4 cells were plated in 96-well microdilution plates. Following overnight cell adherence, experimental media containing the drugs or control media was added to appropriate wells. After 48 hours, the media was replaced by drug-free fresh media (100 μl/well) containing MTT (50 μg). After a 3 hour incubation at 37° C. in 5% CO2 atmosphere, the MTT was removed and MTT-formazan crystals were dissolved in DMSO (100 μl/well). Absorbance at 570 nm was determined on an automatized microtiter plate reader.

Assay [5] shares this test system. Nature of the assay: Cell cycle analysis (percentage of cells in G2/M, propidium iodide flow cytometry). It counts as cell-based, human. To be noted: for blockage of the cell cycle at G2/M: all cancer cell lines independently of HDAC2 status; for G2/M cell cycle arrest: TSA. On the procedure:
as §2, §3

For assay [6], the system named is RKO-HDAC2-transfected cells. Nature of the assay: H4 acetylation by HPCE in RKO cells transfected with HDAC2. The settings on record: RKO cells transfected with wild-type HDAC2. The class given is cell-based, human. From the text: b, Quantification of H4 acetylation by HPCE.
(§4) We quantified global histone H4 acetylation as previously described3. We prepared individual histone fractions from cell nuclei and purified them by reverse-phase HPLC on a Jupiter C18 column (Phenomenex, Inc.) with an acetonitrile gradient (20-60%) in 0.3% trifluoroacetic acid, using a HPLC gradient system (Beckman-Coulter). We resolved non-, mono, di-, tri- and tetra-acetylated histone H4 derivatives by HPCE. We used an uncoated fused-silica capillary (Beckman-Coulter; 60.2 cm 75 μm, effective length 50 cm) in a capillary electrophoresis system (P/ACE MDQ, Beckman-Coulter) with 100 mM phosphate buffer (pH 2.0) 0.02% (w/v) HPM-cellulose as running buffer and operating voltages of 12 kV.
The HDAC2 expression vector pcDNA3-HDAC2 was constructed by cloning the cDNA corresponding to the gene HDAC2 in pcDNA vector (Invitrogen). […] C1ones expressing HDAC2 were selected in complete medium supplemented with 1 mg/mL G418. Stable clones were maintained in complete medium with 1 mg/mL G418. For colony formation experiments, stable G418-resistant colonies were fixed, stained with 2% methylene blue in 60% methanol, and the average number of colonies present in each well was determined.

In assay [7] the test system is HDAC2-knocked down HCT116 cells. It counts as cell-based, human.
Text: as §4

[8] abbreviates: all cancer cell lines independently of HDAC2 status.
Setting [9] is: all colorectal cell lines irrespective of HDAC2 status, 10 mM sodium valproate or 10 mM sodium butyrate.
The mark [10] stands for this setting: HDAC2-proficient cell lines, TSA.
The mark [11] stands for this setting: HDAC2-proficient cell lines, TSA, listed as TSA.

Take `O=C(CCCCCCC(=O)Nc1ccccc1)NO` [SAHA, suberoylanilide hydroxamic acid]: the “apoptosis (propidium iodide)” value in assay [1] is “enhanced resistance”; in assay [1] (listed as suberoylanilide hydroxamic acid (SAHA)), “unable to efficiently inhibit cell growth and induce apoptosis”.
For `CCCC(=O)[O-].[Na+]` [butyrate, sodium butyrate], the tumor shrinkage result in assay [2] (all cancer cell lines xenografted in nude mice (HCT-116, RKO, Co115), independently of HDAC2 status) is on record as “induced tumor shrinkage”. In assay [1] (setting [8]), the induction of apoptosis entry was “induced apoptosis”. Besides, the “hyperacetylation of histones H3 and H4” value in assay [3] (setting [9]) is “induce hyperacetylation in all cells; also recorded: able to induce hyperacetylation”. The inhibition of proliferation entry in assay [4] is “significantly inhibited proliferation”. Besides, the “blockage of the cell cycle at G2/M” value in assay [5] was “able to induce blockage of the cell cycle at G2/M”.
On to `CCCC(CCC)C(=O)[O-].[Na+]` [valproate, sodium valproate], for which the induction of apoptosis result in assay [1] (setting [8]) is recorded as “induced apoptosis”. Also, the “hyperacetylation of histones H3 and H4” value in assay [3] (setting [9]) is recorded as “induce hyperacetylation in all cells; also recorded: able to induce hyperacetylation”. The inhibition of proliferation entry in assay [4] is reported as “significantly inhibited proliferation”. The “blockage of the cell cycle at G2/M” value in assay [5] is “able to induce blockage of the cell cycle at G2/M”.
With `CC(/C=C/C(=O)NO)=C\[C@@H](C)C(=O)c1ccc(N(C)C)cc1` [trichostatin A], the tumor shrinkage result is recorded as “remained highly resistant” in assay [2] (HDAC2-mutant RKO and Co115 xenografts in nude mice); “remained resistant” in assay [2] (HDAC2-mutant RKO and Co115 xenografts in nude mice, listed as TSA); “only able to accomplish these effects in the HDAC2-proficient cell line (HCT-116)” in assay [2] (HDAC2-proficient HCT-116 xenografts in nude mice). Moreover, the induction of apoptosis result in assay [1] (HDAC2-mutant cells (RKO), TSA) is given as “remained highly resistant”; in assay [1] (HDAC2-mutant cells (RKO), TSA, listed as TSA), “marked resistance”; in assay [1] (setting [10]) it was “only able to accomplish these effects in the HDAC2-proficient cell lines”; in assay [1] (setting [11]) it was “induces”. Also, the “histone H4 acetylation mediated by TSA (HPCE)” value in assay [6] is “more sensitive”; in assay [6] (listed as TSA) it was “show resistance to histone acetylation”; in assay [7], “resistant to histone acetylation; also recorded: resistance”. The “hyperacetylation of histones H3 and H4” value in assay [3] (HDAC2-deficient RKO and Co115 cell lines, 0.25 μM trichostatin A) is on record as “unable to induce the hyperacetylation”; in assay [3] (HDAC2-deficient RKO and Co115 cell lines, 0.25 μM trichostatin A, listed as TSA), “does not induce histone hyperacetylation”; in assay [3] (HDAC2-wild type cells (HCT-116, SW48, LoVo), 0.25 μM trichostatin A), “effective”; in assay [3] (HDAC2-wild type cells (HCT-116, SW48, LoVo), 0.25 μM trichostatin A, listed as TSA), “hyperacetylation is achieved”. Besides, the “biochemical and cellular (antiproliferative and proapoptotic) effects of HDAC inhibitors” value in assay [4] (HDAC2-deficient cancer cells, general statement) was “resistant; also recorded: impairs”. Moreover, the cell growth inhibition entry in assay [4] (HDAC2-deficient cells (RKO, Co115), TSA 0-1000 nM, 48 h) was “remained highly resistant”; in assay [4] (HDAC2-deficient cells (RKO, Co115), TSA 0-1000 nM, 48 h, listed as TSA) it was “marked resistance; also recorded: enhanced resistance”; in assay [4] (setting [10]), “only able to accomplish these effects in the HDAC2-proficient cell lines”; in assay [4] (setting [11]) it was “induces”. Further, the “G2/M cell cycle arrest” value in assay [5] (HDAC2-mutant cells (RKO)) is on record as “remained highly resistant”; in assay [5] (HDAC2-mutant cells (RKO), listed as TSA) it was “marked resistance”; in assay [5] (HDAC2-proficient cell lines), “only able to accomplish these effects in the HDAC2-proficient cell lines”; in assay [5] (HDAC2-proficient cell lines, listed as TSA) it was “induces”.
